#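 Interpolation was linear, between the two tested concentrations surrounding the appropriate level; five concentrations were tested over 48 hours in 96-well plates. GI50 marks 50% less growth. TGI: concentration producing complete growth inhibition.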
# Assays:
# Assay in all cases: NCI anticancer screen, dose series, 48 h
# [1] = tested on: MDA-MB-468 breast
# [2] = tested on: CCRF-CEM leukemia
# [3] = tested on: HOP-92 NSCLC
# [4] = tested on: A498 renal
# [5] = tested on: BT-549 breast
# [6] = tested on: OVCAR-3 ovarian
# [7] = tested on: OVCAR-4 ovarian
# [8] = tested on: U251 CNS
# [9] = tested on: SW-620 colon
# [10] = tested on: SNB-19 CNS
# [11] = tested on: TK-10 renal
# [12] = tested on: SK-MEL-2 melanoma
# [13] = tested on: SR leukemia
# [14] = tested on: UACC-62 melanoma
# [15] = tested on: SN12C renal
# [16] = tested on: SF-295 CNS
# [17] = tested on: SK-OV-3 ovarian
# [18] = tested on: NCI-H23 lung
# [19] = tested on: LOX IMVI melanoma
# [20] = tested on: DU-145 prostate
# [21] = tested on: OVCAR-8 ovarian
# [22] = tested on: T-47D breast
# [23] = tested on: M14 melanoma
# [24] = tested on: HT29 colon
# [25] = tested on: 786-0 renal
# [26] = tested on: HOP-62 NSCLC
# [27] = tested on: NCI-H460 lung
# [28] = tested on: IGROV1 ovarian
# [29] = tested on: RPMI-8226 leukemia
# [30] = tested on: COLO 205 colon
# [31] = tested on: OVCAR-5 ovarian
# [32] = tested on: NCI-H522 lung
# [33] = tested on: RXF 393 renal
# [34] = tested on: SNB-75 CNS
# [35] = tested on: PC-3 prostate
# [36] = tested on: SK-MEL-5 melanoma
# [37] = tested on: NCI-H226 lung
# [38] = tested on: SF-539 CNS
# [39] = tested on: HCT-116 colon
# [40] = tested on: MDA-MB-231 breast
# [41] = tested on: K-562 leukemia
# [42] = tested on: HS 578T breast
# [43] = tested on: UACC-257 melanoma
# [44] = tested on: EKVX NSCLC
# [45] = tested on: HCC-2998 colon
# [46] = tested on: UO-31 renal
# [47] = tested on: A549 NSCLC
# [48] = tested on: MOLT-4 leukemia
# [49] = tested on: SF-268 CNS
# [50] = tested on: HCT-15 colon
# [51] = tested on: MALME-3M melanoma
# [52] = tested on: ACHN renal
# [53] = tested on: CAKI-1 renal
# [54] = tested on: MCF7 breast
# [55] = tested on: MDA-MB-435
# [56] = tested on: KM12 colon
# [57] = tested on: HL-60(TB) leukemia
# [58] = tested on: SK-MEL-28 melanoma
smiles,measurement,setting,value
O=C1OCC2=C1C(c1cccc(Cl)c1)c1cc3c(cc1N2CCO)OCO3 (stereo unspecified),GI50,[1],0.246 µM
Clc1ccc(/C=C2\CCCC3C2=Nc2ccccc2NC3c2ccc(Cl)cc2)cc1 (stereo unspecified),GI50,[1],1.89 µM
same,TGI,[1],4.6 µM
CNC(=O)c1cccc(NC(=O)c2ccc3c(c2)nnn3/C(C#N)=C/c2ccccn2)c1,GI50,[2],3.71 µM
same,TGI,[2],38.4 µM
same,GI50,[3],11.6 µM
same,TGI,[3],27.3 µM
same,GI50,[4],18.6 µM
same,TGI,[4],41.1 µM
same,GI50,[5],1.95 µM
same,TGI,[5],5.59 µM
same,GI50,[6],3.11 µM
same,TGI,[6],10.2 µM
same,GI50,[7],15.7 µM
same,TGI,[7],29.4 µM
same,GI50,[8],15.3 µM
same,TGI,[8],32.2 µM
same,GI50,[9],1.87 µM
same,TGI,[9],3.75 µM
same,GI50,[10],18.6 µM
same,TGI,[10],38.9 µM
same,GI50,[11],14 µM
same,TGI,[11],27.6 µM
same,GI50,[12],12.8 µM
same,TGI,[12],25.9 µM
same,GI50,[13],2.76 µM
same,TGI,[13],> 100 µM
same,GI50,[14],14 µM
same,TGI,[14],27.7 µM
same,GI50,[15],16.4 µM
same,TGI,[15],30.3 µM
same,GI50,[16],19.7 µM
same,TGI,[16],39.5 µM
same,GI50,[17],30.2 µM
same,TGI,[17],> 100 µM
same,GI50,[18],13.4 µM
same,TGI,[18],26.8 µM
same,GI50,[19],1.86 µM
same,TGI,[19],3.9 µM
same,GI50,[20],15.3 µM
same,TGI,[20],29 µM
same,GI50,[21],15.3 µM
same,TGI,[21],29.8 µM
same,GI50,[22],2.31 µM
same,TGI,[22],7.38 µM
same,GI50,[23],10.9 µM
same,TGI,[23],23 µM
same,GI50,[24],10.5 µM
same,TGI,[24],31.1 µM
same,GI50,[25],2.38 µM
same,TGI,[25],7.7 µM
same,GI50,[26],17.9 µM
same,TGI,[26],41.2 µM
same,GI50,[27],15.7 µM
same,TGI,[27],34.1 µM
same,GI50,[28],13.6 µM
same,TGI,[28],27.5 µM
same,GI50,[29],10.4 µM
same,TGI,[29],52.1 µM
same,GI50,[30],2.63 µM
same,TGI,[30],6.7 µM
same,GI50,[31],15.7 µM
same,TGI,[31],29.3 µM
same,GI50,[32],1.61 µM
same,TGI,[32],3.14 µM
same,GI50,[33],4.88 µM
same,TGI,[33],16.9 µM
same,GI50,[34],17.7 µM
same,TGI,[34],92.4 µM
same,GI50,[35],19.2 µM
same,TGI,[35],48 µM
same,GI50,[36],14.1 µM
same,TGI,[36],27.4 µM
same,GI50,[37],14.3 µM
same,TGI,[37],29.2 µM
same,GI50,[38],13.8 µM
same,TGI,[38],26.9 µM
same,GI50,[39],2.74 µM
same,TGI,[39],10.1 µM
same,GI50,[40],11.8 µM
same,TGI,[40],24.7 µM
same,GI50,[41],3.11 µM
same,TGI,[41],> 100 µM
same,GI50,[42],12.6 µM
same,TGI,[42],38.1 µM
same,GI50,[43],8.21 µM
same,TGI,[43],21.2 µM
same,GI50,[44],15.8 µM
same,TGI,[44],30.2 µM
same,GI50,[45],16.1 µM
same,TGI,[45],29.8 µM
same,GI50,[1],1.71 µM
same,TGI,[1],3.43 µM
same,GI50,[46],12.7 µM
same,TGI,[46],25.3 µM
same,GI50,[47],22.1 µM
same,TGI,[47],60 µM
same,GI50,[48],3.51 µM
same,TGI,[48],39 µM
same,GI50,[49],17.9 µM
same,TGI,[49],41.4 µM
same,GI50,[50],10.8 µM
same,TGI,[50],23.6 µM
same,GI50,[51],1.85 µM
same,TGI,[51],3.94 µM
same,GI50,[52],13.7 µM
same,TGI,[52],26.8 µM
same,GI50,[53],6.37 µM
same,TGI,[53],19.9 µM
same,GI50,[54],3.46 µM
same,TGI,[54],15.6 µM
same,GI50,[55],7.69 µM
same,TGI,[55],21.4 µM
same,GI50,[56],16.5 µM
same,TGI,[56],46.9 µM
same,GI50,[57],3.21 µM
same,TGI,[57],24.2 µM
same,GI50,[58],1.95 µM
same,TGI,[58],4.33 µM
O=C1c2ccccc2C(=O)c2c(N=Nc3[nH]c(=S)[nH]c3O)cccc21,GI50,[1],0.44 µM
same,TGI,[1],9.34 µM

# From PubChem BioAssay (NCI)
